# Assay results published in patent publication US10668040B2, “Treatment of urea cycle disorders in neonates and infants” (Horizon Therapeutics, LLC, priority 2017, dated 2020).
# Assays:
# Type in all cases: in vivo, human
# [1] = system: UCD patients; assay: HPN-100-009 (Example 2): rate of hyperammonemic crises (HACs); conditions: Age 2 Months to <2 Years
# Source text: HPN-100-009 is an open-label study consisting of a transition period to HPN-100, followed by a safety extension period for at least 6 months and up to 24 months of treatment with HPN-100, depending on age at enrollment. It is designed to capture information important for evaluating safety, pharmacokinetics and efficacy in young children. Subjects eligible for this study included patients ranging from newborn to <2 years of age with either a diagnosed or clinically suspected UCD. Ten infant and toddler (28 days to 23 months) subjects were enrolled in this study.
# Subjects aged 2 months to <2 years received RAVICTI® Oral Liquid administered just prior to breastfeeding or intake of formula or food. The recommended dosing regimen is 3-6 times per day depending on feeding schedule and at the discretion of the Investigator. The starting dose of RAVICTI® was based on UCD status (newly diagnosed, or already stable on sodium phenylbutyrate [NaPBA] and/or sodium benzoate [NaBz]) and whether a hyperammonemic crisis is present. Subsequently, the dose was adjusted based on clinical and/or ammonia results, according to an algorithm provided in the protocol.
# Rate of Hyperammonemic Crises (HACs) During the First 6 Months on RAVICTI®.
# End point description. A HAC was defined having signs and symptoms consistent with hyperammonemia (such as but not limited to frequent vomiting, nausea, headache, lethargy, irritability, combativeness, somnolence) associated with high blood ammonia and requiring medical intervention. Rate of HACs prior to enrollment was calculated as sum of (number of HAC)/sum of (subject age in days at the time of enrollment or 365 days, whichever was less) across all subjects in the corresponding group. Rate of HACs per 6 months during the safety extension was calculated as sum of (number of HAC)/sum of (days during first 6 months starting on Day 8 or number days on RAVICTI®, whichever was less) across all subjects in the corresponding group. Safety population: all enrolled subjects who received any amount of study medication. […]
# [2] = HPN-100-009 (Example 2): urinary PAGN concentrations on first full day of dosing
# Protocol: Assessment of Urinary PAGN Concentrations on the First Full Day of RAVICTI® Dosing.
# End point description. Urinary PAGN concentration was measured through urine collection. PK Evaluable Population: all subjects from the safety population with individual concentration-time profiles that allow computation of meaningful PK parameter values. End point timeframe: Hour 0 and between 0.5 and 1 hour, 1.5 and 2.5 hours, 4 and 6 hours, 7.5 and 8.5 hours, and between 12 and 24 hours after the first dose of the day on Day 1 for stable subjects and on Day 2 for subjects in HAC.
# [3] = Example 3: plasma PBA, PAA, PAGN PK on first full day of RAVICTI dosing
# Protocol: (§1) Pharmacokinetic (PK) Evaluable Population: all subjects from the safety population with individual concentration-time profiles that allow computation of meaningful PK parameter values. Measurements were taken at hour 0, between 4 and 6 hours, 8 hours, and between 12 and 24 hours after the first dose of the day on day 1 for stable subjects and on day 2 for subjects in HAC.
# as §1, with “PK” for “Pharmacokinetic (PK)”
# [4] = aged 0 to 2 months, 16 subjects
# [5] = aged 2 months and up to 2 years, 10 subjects
smiles,measurement,setting,value
"O=C(CCCc1ccccc1)OCC(COC(=O)CCCc1ccccc1)OC(=O)CCCc1ccccc1 [RAVICTI, benzenebutanoic acid, 1′,1″-(1,2,3-propanetriyl) ester]",Rate of HACs During Safety Extension,"[1]; Day 8 up to Month 6, n = 9",0.006
same,Rate of HACs During Transition (Days 1-7),[1]; n = 10,0
same,Rate of HACs Prior to Enrollment,"[1]; up to 365 days prior to enrollment, n = 10",0.11
same,Urinary PAGN concentration,"[2]; Age 2 Months to <2 Years, Hour 0.5 to 1",4140.2 (±4398.8) μg/mL
same,Urinary PAGN concentration,"[2]; Age 2 Months to <2 Years, Hour 1.5 to 2.5",3145.2 (±5044.5) μg/mL
same,Urinary PAGN concentration,"[2]; Age 2 Months to <2 Years, Hour 4 to 6",5201.6 (±4546.6) μg/mL
same,Urinary PAGN concentration,"[2]; Age 2 Months to <2 Years, Hour 7.5 to 8.5",4290 (±3147.2) μg/mL
same,Urinary PAGN concentration,"[2]; Age 2 Months to <2 Years, Hour 12 to 24",7561.1 (±6955.7) μg/mL
same,Urinary PAGN concentration,"[2]; Age 2 months to <2 years, Hour 0",3478.3 (±1775.4) μg/mL
same,Plasma PBA mean Cmin,"[3]; aged 0 to 2 months, 7 subjects",4.8 (±4.2) μg/mL
same,mean plasma PAA Cmin,"[3]; aged 0 to 2 months, 10 subjects",98.98 (±122.07) μg/mL
same,mean plasma PAGN Cmin,"[3]; aged 0 to 2 months, 13 subjects",69.39 (±54.03) μg/mL
same,Plasma PBA mean AUC[0-last],[3]; [4],374.53 (±390.48) μg*hr/mL
same,Plasma PBA mean Cmax,[3]; [4],46.2 (±49.8) μg/mL
same,Plasma PBA mean Tmax,[3]; [4],9.39 (±7.41) hr
same,mean plasma PAA AUC(0-last),[3]; [4],1321.18 (±1220.52) μg*hr/mL
same,mean plasma PAA Cmax,[3]; [4],115.3 (±102.0) μg/mL
same,mean plasma PAA Tmax,[3]; [4],9.85 (±9.26) hr
same,mean plasma PAGN AUC(0-last),[3]; [4],1384.12 (±1141.03) μg*hr/mL
same,mean plasma PAGN Cmax,[3]; [4],102.1 (±48.6) μg/mL
same,mean plasma PAGN Tmax,[3]; [4],11.72 (±8.24) hr
same,Plasma PBA mean AUC[0-last],[3]; [5],280.936 (±293.553) μg*hr/mL
same,Plasma PBA mean Cmax,[3]; [5],42.11 (±36.715) μg/mL
same,Plasma PBA mean Cmin,[3]; [5],1.697 (±2.254) μg/mL
same,Plasma PBA mean Tmax,[3]; [5],8.383 (±4.564) hr
same,mean plasma PAA AUC(0-last),[3]; [5],246.126 (±238.547) μg*hr/mL
same,mean plasma PAA Cmax,[3]; [5],36.52 (±31.784) μg/mL
same,mean plasma PAA Cmin,[3]; [5],4.197 (±6.434) μg/mL
same,mean plasma PAA Tmax,[3]; [5],7.422 (±7.351) hr
same,mean plasma PAGN AUC(0-last),[3]; [5],583.835 (±285.241) μg*hr/mL
same,mean plasma PAGN Cmax,[3]; [5],62.45 (±27.281) μg/mL
same,mean plasma PAGN Cmin,[3]; [5],20.62 (±14.529) μg/mL
same,mean plasma PAGN Tmax,[3]; [5],6.573 (±7.181) hr
